The experiment concerns Mycobacterium tuberculosis. The experiment in a line: Antimycobacterial activity against Mycobacterium tuberculosis overexpressing Rv0560c-OE in iron-free GAST medium at 0.04 to 10 uM after 8 days by two fold serial dilution method. Format: functional, organism-based.

The source made the active and inactive calls. The calls are words filed in the database; no cut-off is given here.

These results are taken from ChEMBL document CHEMBL4145560, “Conformationally Constrained Cinnolinone Nucleoside Analogues as Siderophore Biosynthesis Inhibitors for Tuberculosis” (ACS Med Chem Lett, 2018).

Regarding `Nc1ncnc2c1ncn2[C@@H]1O[C@H](COS(=O)(=O)NC(=O)c2ccccc2O)[C@@H](O)[C@H]1O`, the outcome was Active.
